Laboratory results from patent US8088791B2, “Antibacterial agents” (Biots Scientific Management Pty Ltd, priority 2006, dated 2012).
Values after ≈ are worked out from the molar mass of the structure shown.

Columns and labels:
[1] = tested on: Staphylococcus aureus ATCC29213; assay: Minimum Inhibitory Concentration (MIC) testing, broth microdilution, Staphylococcus aureus; assay type: cell-based; conditions: Staphylococcus aureus ATCC29213; read-out: Staphylococcus aureus MICs Activity
Summary of the method: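 Broth microdilution per NCCLS M7-A5 in Mueller Hinton broth, with compound in 1.6% DMSO and inoculum at OD 0.09 diluted 1:100. Plates incubated 16–20 h at 37°C. MIC is the lowest concentration with no visible growth; scored A ≤8, B 16–64, C >64 μg/ml.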

Bacillus subtilis 168CA = assay: Minimum Inhibitory Concentration (MIC) testing, broth microdilution, Bacillus subtilis; assay type: cell-based; conditions: Bacillus subtilis 168CA; read-out: Bacillus subtilis MICs Activity
Summary of the method: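 Broth microdilution followed NCCLS M7-A5, in rich broth such as Mueller Hinton, inoculum at OD 0.09 diluted 1:100, compounds in 1.6% DMSO before inoculum. After 16–20 h at 37 °C, MIC was the lowest concentration without visible growth. Score A: ≦8 μg/ml, B: 16–64 μg/ml, C: >64 μg/ml.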

## NC(=O)c1c(Cl)ccc(OCc2nc(-c3ccc(Cl)cc3)no2)c1F [Example 269, 6-Chloro-3-[3-(4-chloro-phenyl)-[1,2,4]oxadiazol-5-ylmethoxy]-2-fluoro-benzamide]
[1]
  MIC: < 8 µg/mL
Bacillus subtilis 168CA
  MIC: < 8 µg/mL

## NC(=O)c1c(F)ccc(OCc2coc(-c3ccc(Cl)cc3)n2)c1F [Example 294, 3-[2-(4-Chloro-phenyl)-oxazol-4-ylmethoxy]-2,6-difluoro-benzamide]
[1]
  MIC: < 8 µg/mL
Bacillus subtilis 168CA
  MIC: < 8 µg/mL

## NC(=O)c1ccnc(OCc2nc(-c3ccc(Cl)cc3)cs2)c1 [Example 275, 2-[4-(4-Chloro-phenyl)-thiazol-2-ylmethoxy]-isonicotinamide]
[1]
  MIC: 16 to 64 µg/mL (≈ 46.3 to 185 µM)
Bacillus subtilis 168CA
  MIC: 16 to 64 µg/mL (≈ 46.3 to 185 µM)

## NC(=O)c1c(F)ccc(OCc2cccc(-c3ccccc3)c2)c1F [Example 102, 3-(Biphenyl-3-ylmethoxy)-2,6-difluoro-benzamide]
[1]
  MIC: < 8 µg/mL
Bacillus subtilis 168CA
  MIC: < 8 µg/mL

## NC(=O)c1c(F)ccc(OCc2nc(-c3ccc(C(F)(F)F)cc3)cs2)c1F [Example 319, 2,6-Difluoro-3-[4-(4-trifluoromethyl-phenyl)-thiazol-2-ylmethoxy]-benzamide]
[1]
  MIC: < 8 µg/mL
Bacillus subtilis 168CA
  MIC: < 8 µg/mL

## NC(=O)c1c(F)ccc(OCc2csc(-c3ccccc3)n2)c1F [Example 233, 2,6-Difluoro-3-[(2-phenyl-1,3-thiazol-4-yl)methoxy]benzenecarboxamide]
[1]
  MIC: < 8 µg/mL
Bacillus subtilis 168CA
  MIC: < 8 µg/mL

## CCCCCCCCCCCOc1ccc(F)c(C(N)=O)c1 [Example 72, 2-Fluoro-5-(undecyloxy)benzenecarboxamide]
[1]
  MIC: 16 to 64 µg/mL (≈ 51.7 to 207 µM)
Bacillus subtilis 168CA
  MIC: 16 to 64 µg/mL (≈ 51.7 to 207 µM)

## CCCCOC(=O)COc1cccc(C(N)=O)c1F [Example 176, Butyl 2-[3-(aminocarbonyl)-2-fluorophenoxy]acetate]
[1]
  MIC: 16 to 64 µg/mL (≈ 59.4 to 238 µM)
Bacillus subtilis 168CA
  MIC: < 8 µg/mL

## COc1ccc2ccc(COc3ccc(F)c(C(N)=O)c3F)nc2c1 [Example 98, 2,6-Difluoro-3-(7-methoxy-quinolin-2-ylmethoxy)-benzamide]
[1]
  MIC: < 8 µg/mL
Bacillus subtilis 168CA
  MIC: < 8 µg/mL

## NC(=O)c1c(F)ccc(OCc2nc3cc(C4CCCCC4)ccc3s2)c1F [Example 315]
[1]
  MIC: < 8 µg/mL
Bacillus subtilis 168CA
  MIC: < 8 µg/mL

## CC(C)(C)c1nc(CCCOc2cccc(C(N)=O)c2)c(C(F)(F)F)o1 [Example 57, 3-{3-[2-(tert-Butyl)-5-(trifluoromethyl)-1,3-oxazol-4-yl]propoxy}benzenecarboxamide]
[1]
  MIC: 16 to 64 µg/mL (≈ 43.2 to 173 µM)
Bacillus subtilis 168CA
  MIC: < 8 µg/mL

## Cc1ccc(-c2nc(COc3ccc(F)c(C(N)=O)c3F)co2)cc1 [Example 295, 2,6-Difluoro-3-(2-p-tolyl-oxazol-4-ylmethoxy)-benzamide]
[1]
  MIC: < 8 µg/mL
Bacillus subtilis 168CA
  MIC: < 8 µg/mL

## NC(=O)c1c(F)ccc(OCc2cc3ccccc3o2)c1F [Example 207, 3-(1-Benzofuran-2-ylmethoxy)-2,6-difluorobenzenecarboxamide]
[1]
  MIC: 16 to 64 µg/mL (≈ 52.8 to 211 µM)
Bacillus subtilis 168CA
  MIC: < 8 µg/mL

## NC(=O)c1c(F)ccc(OCc2csc(Nc3ccccc3)n2)c1F [Example 237, 3-[(2-Anilino-1,3-thiazol-4-yl)methoxy]-2,6-difluorobenzenecarboxamide]
[1]
  MIC: 16 to 64 µg/mL (≈ 44.3 to 177 µM)
Bacillus subtilis 168CA
  MIC: 16 to 64 µg/mL (≈ 44.3 to 177 µM)

## Cl.NC(=O)c1c(F)ccc(OCc2nc(-c3ccc(N)cc3)no2)c1F [Example 251, 3-[3-(4-Aminophenyl)-1,2,4-oxadiazol-5-yl]methoxy-2,6-difluorobenzenecarboxamide hydrochloride salt]
[1]
  MIC: 16 to 64 µg/mL
Bacillus subtilis 168CA
  MIC: 16 to 64 µg/mL

## NC(=O)c1c(F)ccc(OCc2nc(-c3ccccn3)cs2)c1F [Example 115, 2,6-Difluoro-3-(4-pyridin-2-yl-thiazol-2-ylmethoxy)-benzamide]
[1]
  MIC: < 8 µg/mL
Bacillus subtilis 168CA
  MIC: 16 to 64 µg/mL (≈ 46.1 to 184 µM)

## COc1ccc(-c2nc(COc3ccc(F)c(C(N)=O)c3F)c(C)o2)cc1 [Example 296, 2,6-Difluoro-3-[2-(4-methoxy-phenyl)-5-methyl-oxazol-4-ylmethoxy]-benzamide]
[1]
  MIC: < 8 µg/mL
Bacillus subtilis 168CA
  MIC: < 8 µg/mL

## NC(=O)c1c(F)ccc(OCc2nc(-c3ccc4c(c3)OCO4)no2)c1F [Example 322, 3-(3-Benzo[1,3]dioxol-5-yl-[1,2,4]oxadiazol-5-ylmethoxy)-2,6-difluoro-benzamide]
[1]
  MIC: < 8 µg/mL
Bacillus subtilis 168CA
  MIC: < 8 µg/mL

## COc1ccc(-c2nc(COc3ccc(F)c(C(N)=O)c3F)sc2-c2ccccc2N)cc1 [Example 283, 2,6-Difluoro-3-[5-(2-amino-phenyl)-4-(4-methoxy-phenyl)-thiazol-2-ylmethoxy]-benzamide]
[1]
  MIC: < 8 µg/mL
Bacillus subtilis 168CA
  MIC: < 8 µg/mL

## CC(C)=CCC/C(C)=C/CCC(C)COc1cccc(C(N)=O)c1 (stereo not shown) [Example 55, 3-{[(5E)-2,6,10-Trimethyl-5,9-undecadienyl]oxy}benzenecarboxamide]
[1]
  MIC: < 8 µg/mL
Bacillus subtilis 168CA
  MIC: < 8 µg/mL

## NC(=O)c1c(F)ccc(OCc2nc3cc(Cl)ncc3s2)c1F [Example 156, 3-(6-Chloro-thiazolo[5,4-c]pyridin-2-ylmethoxy)-2,6-difluoro-benzamide]
[1]
  MIC: < 8 µg/mL
Bacillus subtilis 168CA
  MIC: < 8 µg/mL

## Cc1cc(COc2ccc(F)c(C(N)=O)c2F)ccc1F [Example 147, 2,6-Difluoro-3-(4-fluoro-3-methyl-benzyloxy)-benzamide]
[1]
  MIC: 16 to 64 µg/mL (≈ 54.2 to 217 µM)
Bacillus subtilis 168CA
  MIC: 16 to 64 µg/mL (≈ 54.2 to 217 µM)

## CCCCOC(=O)COc1cccc(C(N)=O)c1 [Example 41, Butyl 2-[3-(aminocarbonyl)phenoxy]acetate]
[1]
  MIC: 16 to 64 µg/mL (≈ 63.7 to 255 µM)
Bacillus subtilis 168CA
  MIC: 16 to 64 µg/mL (≈ 63.7 to 255 µM)

## Cc1ccc2sc(COc3ccc(F)c(C(N)=O)c3F)nc2c1 [Example 148, 2,6-Difluoro-3-(5-methyl-benzothiazol-2-ylmethoxy)-benzamide]
[1]
  MIC: < 8 µg/mL
Bacillus subtilis 168CA
  MIC: < 8 µg/mL

## CCCCCCOCCOc1ccc(F)c(C(N)=O)c1F [Example 85, 2,6-Difluoro-3-[2-(hexyloxy)ethoxy]benzenecarboxamide]
[1]
  MIC: < 8 µg/mL
Bacillus subtilis 168CA
  MIC: < 8 µg/mL

## CC(C)c1ccc(-c2noc(COc3ccc(F)c(C(N)=O)c3F)n2)cc1 [Example 248, 2,6-Difluoro-3-[3-(4-isopropylphenyl)-1,2,4-oxadiazol-5-yl]methoxybenzenecarboxamide]
[1]
  MIC: < 8 µg/mL
Bacillus subtilis 168CA
  MIC: < 8 µg/mL

## NC(=O)c1c(F)ccc(OCc2nnc(-c3cccs3)o2)c1F [Example 152, 2,6-Difluoro-3-(5-thiophen-2-yl-[1,3,4]oxadiazol-2-ylmethoxy)-benzamide]
[1]
  MIC: 16 to 64 µg/mL (≈ 47.4 to 190 µM)
Bacillus subtilis 168CA
  MIC: 16 to 64 µg/mL (≈ 47.4 to 190 µM)

## COc1ccc(-c2nc(COc3ccc(F)c(C(N)=O)c3F)sc2-c2cccnc2)cc1 [Example 121, 2,6-Difluoro-3-[4-(4-methoxy-phenyl)-5-pyridin-3-yl-thiazol-2-ylmethoxy]-benzamide]
[1]
  MIC: < 8 µg/mL
Bacillus subtilis 168CA
  MIC: < 8 µg/mL

## C=CCCCCOc1cccc(C(N)=O)c1 [Example 15, 3-(5-Hexenyloxy)benzenecarboxamide]
[1]
  MIC: 16 to 64 µg/mL (≈ 73 to 292 µM)
Bacillus subtilis 168CA
  MIC: 16 to 64 µg/mL (≈ 73 to 292 µM)

## NC(=O)c1c(F)ccc(OCc2nc3c(Cl)cccc3s2)c1F [Example 226, 3-[(4-Chloro-1,3-benzothiazol-2-yl)methoxy]-2,6-difluorobenzenecarboxamide]
[1]
  MIC: 16 to 64 µg/mL (≈ 45.1 to 180 µM)
Bacillus subtilis 168CA
  MIC: 16 to 64 µg/mL (≈ 45.1 to 180 µM)

## Cc1ccc(-c2nc(CCOc3ccc(F)c(C(N)=O)c3F)c(C)o2)cc1 [Example 333, 2,6-Difluoro-3-[2-(5-methyl-2-p-tolyl-oxazol-4-yl)-ethoxy]-benzamide]
[1]
  MIC: < 8 µg/mL
Bacillus subtilis 168CA
  MIC: < 8 µg/mL

## CCCCCCOc1cccc(C(N)=O)c1F [Example 165, 2-Fluoro-3-Hexoxy-benzamide]
[1]
  MIC: < 8 µg/mL
Bacillus subtilis 168CA
  MIC: < 8 µg/mL

## NC(=O)c1c(F)ccc(OCc2nc3cc(C4=CCCCC4)ccc3s2)c1F [Example 314]
[1]
  MIC: 16 to 64 µg/mL (≈ 40 to 160 µM)
Bacillus subtilis 168CA
  MIC: < 8 µg/mL

## C=CCCCCCOc1cccc(C(N)=O)c1 [Example 17, 3-(6-Heptenyloxy)benzenecarboxamide]
[1]
  MIC: 16 to 64 µg/mL (≈ 68.6 to 274 µM)
Bacillus subtilis 168CA
  MIC: 16 to 64 µg/mL (≈ 68.6 to 274 µM)

## COc1ccc(-c2nc(COc3ccc(F)c(C(N)=O)c3F)sc2-c2ccccc2O)cc1 [Example 277, 2,6-Difluoro-3-[5-(2-hydroxy-phenyl)-4-(4-methoxy-phenyl)-thiazol-2-ylmethoxy]-benzamide]
[1]
  MIC: < 8 µg/mL
Bacillus subtilis 168CA
  MIC: < 8 µg/mL

## NC(=O)c1c(F)ccc(OCc2cccc(Cl)c2)c1F [Example 331, 3-(3-Chloro-benzyloxy)-2,6-difluoro-benzamide]
[1]
  MIC: 16 to 64 µg/mL (≈ 53.7 to 215 µM)
Bacillus subtilis 168CA
  MIC: < 8 µg/mL

## NC(=O)c1c(F)ccc(OCc2coc(-c3cccs3)n2)c1F [Example 133, 2,6-Difluoro-3-(2-thiophen-2-yl-oxazol-4-ylmethoxy)-benzamide]
[1]
  MIC: < 8 µg/mL
Bacillus subtilis 168CA
  MIC: < 8 µg/mL

## NC(=O)c1c(F)ccc(OCc2nc3cccc(Cl)c3s2)c1F [Example 104, 2,6-Difluoro-3-(7-chloro-benzothiazol-2-ylmethoxy)-benzamide]
[1]
  MIC: < 8 µg/mL
Bacillus subtilis 168CA
  MIC: < 8 µg/mL

## CCCCCCOc1cccc(C(N)=O)c1O [Example 166, 2-Hydroxy-3-Hexoxy-benzamide]
[1]
  MIC: > 64 µg/mL
Bacillus subtilis 168CA
  MIC: > 64 µg/mL

## NC(=O)c1c(F)ccc(OCc2nc(-c3ccc(O)cc3)co2)c1F [Example 312, 2,6-Difluoro-3-[4-(4-hydroxy-phenyl)-oxazol-2-ylmethoxy]-benzamide]
[1]
  MIC: < 8 µg/mL
Bacillus subtilis 168CA
  MIC: 16 to 64 µg/mL (≈ 46.2 to 185 µM)

## COC(=O)CCCOc1cccc(C(N)=O)c1 [Example 26, Methyl 4-[3-(aminocarbonyl)phenoxy]butanoate]
[1]
  MIC: > 64 µg/mL
Bacillus subtilis 168CA
  MIC: > 64 µg/mL

## CC(Oc1ccc(F)c(C(N)=O)c1F)c1nc(-c2ccc(Cl)cc2)no1 (stereo not shown) [Example 324, 3-{1-[3-(4-Chloro-phenyl)-[1,2,4]oxadiazol-5-yl]-ethoxy}-2,6-difluoro-benzamide]
[1]
  MIC: < 8 µg/mL
Bacillus subtilis 168CA
  MIC: < 8 µg/mL

## Cc1cc(COc2ccc(F)c(C(N)=O)c2F)no1 [Example 182, 2,6-Difluoro-3-[(5-methyl-3-isoxazolyl)methoxy]benzenecarboxamide]
[1]
  MIC: > 64 µg/mL
Bacillus subtilis 168CA
  MIC: > 64 µg/mL

## NC(=O)c1c(F)ccc(OCc2cncs2)c1F [Example 189, 2,6-Difluoro-3-(1,3-thiazol-5-ylmethoxy)benzenecarboxamide]
[1]
  MIC: > 64 µg/mL
Bacillus subtilis 168CA
  MIC: > 64 µg/mL
